From patent publication US11407771B2 (priority 2018, dated 2022) come the findings set out here.

Each structure is given as a SMILES string.

One experiment deals with MAPK13 (Homo sapiens (Human), UniProt O15264). Conditions: read-out: MAPK13 IC50.
Chain of MAPK13 (O15264 whole entry): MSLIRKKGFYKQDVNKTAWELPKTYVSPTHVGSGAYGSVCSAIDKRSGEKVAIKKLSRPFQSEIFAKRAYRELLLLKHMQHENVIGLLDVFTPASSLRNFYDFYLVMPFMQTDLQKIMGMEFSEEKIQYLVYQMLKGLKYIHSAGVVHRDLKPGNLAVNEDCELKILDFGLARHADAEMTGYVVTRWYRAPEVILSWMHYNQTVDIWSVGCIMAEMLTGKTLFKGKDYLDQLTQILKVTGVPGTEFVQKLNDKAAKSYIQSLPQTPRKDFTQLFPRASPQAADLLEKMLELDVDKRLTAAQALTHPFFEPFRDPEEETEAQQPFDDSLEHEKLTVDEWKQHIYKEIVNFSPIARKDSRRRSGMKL
As for `Cc1ccc(-n2nc(C(C)(C)C)cc2NC(=O)Nc2ncc(CCc3ccnc(NC(=O)C4CC4)c3)s2)cc1` [Compound 331, Cyclopropanecarboxylic acid [4-(2-{2-[3-(5-tert-butyl-2-p-tolyl-2H-pyrazol-3-yl)-ureido]-thiazol-5-yl}ethyl)-pyridin-2-yl]-amide], the IC50 was determined as 11 nM. The same measure, in the same setting: the value for `Cc1ccc(-n2nc(C(C)(C)C)cc2NC(=O)Nc2ncc(CCc3ccnc(NC(=O)C4CCC4)c3)s2)cc1` [Compound 332, Cyclobutanecarboxylic acid [4-(2-{2-[3-(5-tert-butyl-2-p-tolyl-2H-pyrazol-3-yl)-ureido]-thiazol-5-yl}-ethyl)-pyridin-2-yl]-amide] was 18 nM.

Staying with this experiment, now noted: read-out: MAPK13 inhibition.
As to `COCC(=O)Nc1cc(Oc2ccc(NC(=O)Nc3cc(C4(C)COC4)nn3-c3ccc(C)cc3)cc2)ccn1` [Compound 259, 2-Methoxy-N-[4-(4-{3-[5-(3-methyl-oxetan-3-yl)-2-p-tolyl-2H-pyrazol-3-yl]-ureido}-phenoxy)-pyridin-2-yl]-acetamide], the IC50 is below 250 nM.

On to `COCC(=O)Nc1cc(Oc2ccc(NC(=O)Nc3cc(C4(C)CSC4)nn3-c3ccc(C)cc3)cc2)ccn1` [Compound 260, 2-Methoxy-N-[4-(4-{3-[5-(3-methyl-thietan-3-yl)-2-p-tolyl-2H-pyrazol-3-yl]-ureido}-phenoxy)-pyridin-2-yl]-acetamide], for which the IC50 is below 250 nM. On the same count and under the same terms, as for `COC(=O)Nc1cc(Oc2ccc(NC(=O)Nc3cc(C4(C)COC4)nn3-c3ccc(C)cc3)cc2)ccn1` [Compound 261, [4-(4-{3-[5-(3-Methyl-oxetan-3-yl)-2-p-tolyl-2H-pyrazol-3-yl]-ureido}-phenoxy)-pyridin-2-yl]-carbainic acid methyl ester], the figure is below 250 nM. Regarding `COC(=O)Nc1cc(Oc2ccc(NC(=O)Nc3cc(C4(C)CSC4)nn3-c3ccc(C)cc3)cc2)ccn1` [Compound 262, [4-(4-{3-[5-(3-Methyl-thietan-3-yl)-2-p-tolyl-2H-pyrazol-3-yl]-ureido}-phenoxy)-pyridin-2-yl]-carbamic acid methyl ester], the IC50 is below 250 nM.

As for `Cc1ccc(-n2nc(C3(C)CSC3)cc2NC(=O)Nc2ncc(CCc3ccncc3)s2)cc1` [Compound 273, 1-[5-(3-Methyl-thietan-3-yl)-2-p-tolyl-2H-pyrazol-3-yl]-3-[5-(2-pyridin-4-yl-ethyl)-thiazol-2-yl]-urea], the IC50 is below 250 nM. Regarding `CCNC(=O)Nc1cc(CCc2cnc(NC(=O)Nc3cc(C(C)(C)C)nn3-c3ccc(C)cc3)s2)ccn1` [Compound 284, 1-[4-(2-{2-[3-(5-tert-Butyl-2-p-tolyl-2H-pyrazol-3-yl)-ureido]-thiazol-5-yl}-ethyl)-pyridin-2-yl]-3-ethyl-urea], the IC50 was below 250 nM. On the same count and under the same terms, the value for `Cc1ccc(-n2nc(C(C)(C)C)cc2NC(=O)Nc2ncc(CCc3ccnc(NC(=O)C4CCOCC4)c3)s2)cc1` [Compound 288, Tetrahydro-pyran-4-carboxylic acid [4-(2-{2-[3-(5-tert-butyl-2-p-tolyl-2H-1-pyrazol-3-yl)-ureido]-thiazol-5-yl}-ethyl)-pyridin-2-yl]-amide] was below 250 nM; that for `Cc1ccc(-n2nc(C(C)(C)C)cc2NC(=O)Nc2ccc(Oc3ccncc3C)cc2F)cc1` [Compound 300, 1-(5-tert-Butyl-2-p-tolyl-2H-pyrazol-3-yl)-3-[2-fluoro-4-(3-methyl-pyridin-4-yloxy)-phenyl]-urea] was below 250 nM; that for `CC(C)(C)c1cc(NC(=O)Nc2ccc(Oc3ccncc3)cc2F)n(-c2ccc(F)cc2)n1` [Compound 303, 1-[5-tert-Butyl-2-(4-fluoro-phenyl)-2H-pyrazol-3-yl]-3-[2-fluoro-4-(pyridin-4-yloxy)-phenyl]-urea] was below 250 nM. Still for that read-out and setting: the value for `CC(C)(C)c1cc(NC(=O)Nc2ccc(Oc3ccnc(N)c3)cc2F)n(-c2cccc(F)c2)n1` [Compound 304, 1-[4-(2-Amino-pyridin-4-yloxy)-2-fluoro-phenyl]-3-[5-tert-butyl-2-(3-fluoro-phenyl)-2H-pyrazol-3-yl]-urea] was below 250 nM; that for `CC(C)(C)c1cc(NC(=O)Nc2ccc(Oc3ccncc3)cc2F)n(-c2cccc(F)c2)n1` [Compound 306, 1-[5-tert-butyl-2-(3-fluorophenyl)pyrazol-3-yl]-3-[2-fluoro-4-(4-pyridyloxy)phenyl]urea] was below 250 nM; that for `CC(C)(C)c1cc(NC(=O)Nc2ccc(Oc3ccncc3)cc2F)n(CC2CC2)n1` [Compound 310, 1-(5-tert-Butyl-2-cyclopropylmethyl-2H-pyrazol-yl)-3-[2-fluoro-4-(pyridin-4-yloxy)-phenyl]-urea] was below 250 nM. Still for that read-out and setting: as for `COC(=O)Nc1cc(CCc2ccc(NC(=O)Nc3cc(C(C)(C)C)nn3-c3ccc(C)cc3)c(F)c2)ccn1` [Compound 315, [4-(2-{4-[3-(5-tert-Butyl-2-p-tolyl-2H-pyrazol-3-yl)-ureido]-3-fluoro-phenyl}-ethyl)-pyridin-2-yl]-carbamic acid methyl ester], the figure is above 1000 nM; as for `CC(=O)Nc1cc(CCc2cnc(NC(=O)Nc3cc(C(C)(C)C)nn3CC3CC3)s2)ccn1` [Compound 325, N-[4-(2-{2-[3-(5-tert-Butyl-2-cyclopropylmethyl-2H-pyrazol-3-yl)-ureido]-thiazol-5-yl}-ethyl)-pyridin-2-yl]-acetamide], below 250 nM. For the compound `CC(=O)Nc1cc(CCc2ccc(NC(=O)Nc3cc(C(C)(C)C)nn3-c3ccc(C)cc3)c(F)c2)ccn1` [Compound 329, N-[4-(2-{4-[3-(5-tert-Butyl-2-p-tolyl-2H-pyrozol-3-yl)-ureido]-3-fluoro-phenyl}-ethyl)-pyridin-2-yl]-acetamide], the IC50 is below 250 nM.

In the case of `Cc1ccc(-n2nc(C(C)(C)C)cc2NC(=O)Nc2ncc(CCc3ccnc(NC(=O)C4CC4)c3)s2)cc1` [Compound 331, Cyclopropanecarboxylic acid [4-(2-{2-[3-(5-tert-butyl-2-p-tolyl-2H-pyrazol-3-yl)-ureido]-thiazol-5-yl}ethyl)-pyridin-2-yl]-amide], the IC50 is below 250 nM. Same read-out and setting: as for `Cc1ccc(-n2nc(C(C)(C)C)cc2NC(=O)Nc2ncc(CCc3ccnc(NC(=O)C4CCC4)c3)s2)cc1` [Compound 332, Cyclobutanecarboxylic acid [4-(2-{2-[3-(5-tert-butyl-2-p-tolyl-2H-pyrazol-3-yl)-ureido]-thiazol-5-yl}-ethyl)-pyridin-2-yl]-amide], the figure is below 250 nM; as for `CC(C)(C)c1cc(NC(=O)Nc2ncc(CCc3ccnc(NC(=O)C4CC4)c3)s2)n(CC2CC2)n1` [Compound 334, Cyclopropanecarboxylic acid [4-(2-{2-[3-(5-tert-butyl-2-cyclopropylmethyl-2H-pyrazol-3-yl)-ureido]-thiazol-5-yl}-ethyl)-pyridin-2-yl]-amide], below 250 nM.

Regarding `CCOC(=O)Nc1cc(CCc2cnc(NC(=O)Nc3cc(C(C)(C)C)nn3C)s2)ccn1` [Compound 335, [4-(2-{2-[3-(5-tert-Butyl-2-methyl-2H-pyrazol-3-yl)-ureido]-thiazol-5-yl}-ethyl)-pyridin-2-yl]-carbamic acid ethyl ester], the IC50 was below 250 nM. Still for that read-out and setting: as for `Cc1ccc(-n2nc(C(C)(C)C)cc2NC(=O)Nc2ncc(CCc3ccnc(NC(=O)N4CCCC4)c3)s2)cc1` [Compound 337, Pyrrolidine-1-carboxylic acid [4-(2-{2-[3-(5-tert-butyl-2-p-tolyl-2H-pyrazol-3-yl)-ureido]-thiazol-5-yl}-ethyl)-pyridin-2-yl]-amide], the figure is below 250 nM. Same read-out and setting: as for `CC(C)(C)c1cc(NC(=O)Nc2ncc(CCc3ccnc(NC(=O)C4CCC4)c3)s2)n(CC2CC2)n1` [Compound 339, Cyclobutanecarboxylic acid [4-(2-{2-[3-(5-tert-butyl-2-cyclopropylmethyl-2H-pyrazol-3-yl)-ureido]-thiazol-5-yl}-ethyl)-pyridin-2-yl]-airdde], the figure is below 250 nM; as for `CCNC(=O)Nc1cc(CCc2cnc(NC(=O)Nc3cc(C(C)(C)C)nn3CC3CC3)s2)ccn1` [Compound 340, 1-[4-(2-{2-[3-(5-tert-Butyl-2-cyclopropylmethyl-2H-pyrazol-3-yl)-uredo]-thiazol-5-yl}-ethyl)-pyridin-2-yl]-3-ethyl-urea], below 250 nM. On the same count and under the same terms, the value for `COCCC(=O)Nc1cc(CCc2cnc(NC(=O)Nc3cc(C(C)(C)C)nn3CC3CC3)s2)ccn1` [Compound 342, N-[4-(2-{2-[3-(5-tert-Butyl-2-cyclopropylmethyl-2H-pyrazol-3-yl)-ureido]-thiazol-5-yl}-ethyl)-pyridin-2-yl]-3-methoxy-propionamide] was below 250 nM; that for `Cn1nc(C(C)(C)C)cc1NC(=O)Nc1ncc(CCc2ccnc(NC(=O)C3CC3)c2)s1` [Compound 345, Cyclopropanecarboxylic acid [4-(2-{2-[3-(5-tert-butyl-2-methyl-2H-pyrazol-3-yl)-ureido]-thiazol-5-yl}-ethyl)-pyridin-2-yl]-amide] was below 250 nM; that for `CC(C)C(=O)Nc1cc(CCc2cnc(NC(=O)Nc3cc(C(C)(C)C)nn3C)s2)ccn1` [Compound 349, N-[4-(2-{2-[3-(5-tert-Butyl-2-methyl-2H-pyrazol-3-yl)-ureido]-thiazol-5-yl}-ethyl)-pyridin-2-yl]-isobutyramide] was below 250 nM.

On to `COCC(=O)Nc1cc(CCc2cnc(NC(=O)Nc3cc(C(C)(C)C)nn3C)s2)ccn1` [Compound 350, N-[4-(2-{2-[3-(5-tert-Butyl-2-methyl-2H-pyrazol-3-yl)-ureido]-thiazol-5-yl}-ethyl)-pyridin-2-yl]-2-methoxy-acetamide], for which the IC50 is below 250 nM. Same read-out and setting: as for `CCNC(=O)Nc1cc(CCc2cnc(NC(=O)Nc3cc(C(C)(C)C)nn3C)s2)ccn1` [Compound 352, 1-[4-(2-{2-[3-(5-tert-Butyl-2-methyl-2H-pyrazol-3-yl)-ureido]-thiazol-5-yl}ethyl)-pyridin-2-yl]-3-ethyl-urea], the figure is below 250 nM. Same read-out and setting: the value for `Cn1nc(C(C)(C)C)cc1NC(=O)Nc1ncc(CCc2ccnc(NC(=O)C3CCC3)c2)s1` [Compound 353, Cyclobutanecarboxylic acid [4-(2-{2-[3-(5-tert-butyl-2-methyl-2H-pyrazol-3-yl)-ureido]-thiazol-5-yl}-ethyl)-pyridin-2-yl]-amide] was below 250 nM; that for `CCOC(=O)Nc1cc(CCc2cnc(NC(=O)Nc3cc(C(F)(F)F)ccc3F)s2)ccn1` [Compound 357, [4-(2-{2-[3-(2-Fluoro-5-trifluoromethyl-phenyl)-ureido]-thiazol-5yl}-ethyl)-pyridin-2-yl]-carbamic acid ethyl ester] was above 1000 nM. The same measure, in the same setting: as for `CC(=O)Nc1cc(CCc2ccc(NC(=O)Nc3cc(C(C)(C)C)on3)c(F)c2)ccn1` [Compound 358, N-[4-(2-{4-[3-(5-tert-Butyl-isoxazol-3-yl)-ureido]-3-fluoro-phenyl}-ethyl)-pyridin-2-yl]-acetamide], the figure is above 1000 nM.
